What was measured:
[1] = tested on: IL-17A-induced G-CSF production in human normal keratinocyte (NHK); test: NHK Assay: IL-17A-induced G-CSF production in human normal keratinocytes; type: cell-based; settings: Homo sapiens, Keratinocyte, 24 h, adult normal human keratinocytes, IL-17A 5 ng/mL, simple average if tested more than once
Procedure: IL-17A acts directly on keratinocytes through binding to dimeric receptor IL-17RA/RC and drives the production of a number of inflammatory mediators known to be elevated in psoriasis lesional tissue. IL-17A small molecule inhibitors that block the IL-17A to interact with IL-17R would inhibit the IL-17A signaling in its targeted cells such as keratinocytes. The compound functional activity is evaluated for its impact on IL-17A-induced G-CSF production in human normal keratinocyte (NHK).
Adult normal human keratinocytes are cultured in keratinocyte growth medium (Lonza) in a flask till reaching ˜ 90% confluence, then cells are transferred to a 384-well plate at density of 3000-4000 cell/well. Recombinant human IL-17A (Gibco PHC9174) is pre-incubated with titrated compound or DMSO for 1 h at rt then added to the cell culture plate. The final concentration of IL-17A is 5 ng/mL and DMSO is 0.2%, in the culture containing 5% FBS. Cells are cultured/treated for 24 h at 37° C. Supernatants are collected and G-CSF production is measured through HTRF technology using Human G-CSF Kit (CisBio). G-CSF concentration was extrapolated from the standard curve and IC50 is determined using GraphPad Prism. Cell viability is also evaluated using CellTiter-Glo kit (Promega) and effect of compound on cell viability is compared to DMSO control.

[2] = target: IL-17A(FLAG-Tagged): IL-17RA(His-Tagged) (Homo sapiens, UniProt Q16552, K93Q); test: IL-17A(FLAG-Tagged): IL-17RA(His-Tagged) Binding Disruption Eu-HTRF Assay; settings: IL-17A/IL-17RA binding disruption, simple average if tested more than once
From the text: IL-17A(FLAG-Tagged): IL-17RA(His-Tagged) Binding Disruption Eu-HTRF Assay
An antibody directed against the FLAG tag of IL-17A (SEQ ID NO:1) is labeled with the HTRF donor chromophore (Europium-cryptate). IL-17A is present as a dimer that is “locked into” this quaternary structure due to the formation of loop-spanning […] disulfide bridges. The construct of IL-17RA used in the assay excludes the […] portion of the receptor and is fused to a C-terminal 10×His tag (SEQ ID NO:2). An antibody directed against the His tag of the IL-17RA chimera is labeled with the HTRF acceptor chromophore (“D2”). The fluorescence-resonance energy transfer (FRET) depends on the vicinity of the donor chromophore to the acceptor, and interruption of the binding between the IL-17A and IL-17RA causes the reduction/loss of FRET. Therefore, this assay allows to evaluate the compound effect on the binding IL-17A and IL-17RA by monitoring the fluorescence intensity of donor vs acceptor. The assay is run as described below.
40 nl of 2-fold serial diluted compound solution for total 22 dilution points is added into each well of a 1536-well, white, low-volume, non-binding plate (Greiner #782904), then 2 μl of FLAG tagged IL-17A at 2× final concentration (2.5 nM) in solution of PBS+0.01% Triton-X100 is added to each well. The assay plate is briefly centrifuged then incubated for 1 h at rt. A mixed solution is prepared containing 2×5 nM 10HIS×IL-17RA, 2×2.5 nM Eu-anti-FLAG (CISBIO), 2×5 nM D2-anti-HIS (CISBIO) in PBS+0.01% Triton-X100+200 mM Potassium Fluoride (Sigma 60238) and 2 μl of mix is added to each well of the assay plate. The plate is briefly centrifuged then incubated for 2 h at rt. The HTRF intensities at the wavelength of donor (620 nm) and acceptor (665 nm) are measured using BMG Pherastar. The ratio between intensities at two wavelengths is calculated and plotted against the compound concentration and the data is fitted to a one-site competition model to yield IC50 of the compound.

UniProt Q16552, sequence (Q16552 with tags, fused parts or gaps K93Q): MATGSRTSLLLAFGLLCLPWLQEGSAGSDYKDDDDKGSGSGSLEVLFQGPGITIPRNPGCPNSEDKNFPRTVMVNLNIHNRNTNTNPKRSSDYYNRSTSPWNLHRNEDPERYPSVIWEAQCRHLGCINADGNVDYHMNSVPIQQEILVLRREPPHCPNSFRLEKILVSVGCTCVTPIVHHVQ

Cc1nonc1C(=O)N[C@H](c1cn2ncc([C@H](NC(=O)[C@H]3CC[C@@H]3F)C3CC3)cc2n1)C1CCC(F)(F)CC1 (relative stereo) [Example 334, N—((S)-(7-((R)-Cyclopropyl((1R*,2S*)-2-fluorocyclobutane-1-carboxamido)methyl)imidazo[1,2-b]pyridazin-2-yl)(4,4-difluorocyclohexyl)methyl)-4-methyl-1,2,5-oxadiazole-3-carboxamide]
IC50 [1]: > 20 µM | IC50 [2]: 4.4 µM

Cc1nonc1C(=O)N[C@H](c1cn2ncc([C@H](NC(=O)[C@@H]3CC[C@H]3F)C3CC3)cc2n1)C1CCC(F)(F)CC1 (relative stereo) [Example 335, N—((S)-(7-((R)-Cyclopropyl((1S*,2R*)-2-fluorocyclobutane-1-carboxamido)methyl)imidazo[1,2-b]pyridazin-2-yl)(4,4-difluorocyclohexyl)methyl)-4-methyl-1,2,5-oxadiazole-3-carboxamide]
IC50 [1]: > 20 µM | IC50 [2]: 7.5 µM

Cc1nonc1C(=O)N[C@H](c1cn2ncc([C@H](NC(=O)[C@H]3CC[C@H]3F)C3CC3)cc2n1)C1CCC(F)(F)CC1 (relative stereo) [Example 336, N—((S)-(7-((R)-Cyclopropyl((1R*,2R*)-2-fluorocyclobutane-1-carboxamido)methyl)imidazo[1,2-b]pyridazin-2-yl)(4,4-difluorocyclohexyl)methyl)-4-methyl-1,2,5-oxadiazole-3-carboxamide]
IC50 [1]: > 20 µM | IC50 [2]: 5 µM

Cc1nonc1C(=O)N[C@H](c1cn2ncc([C@H](NC(=O)[C@@H]3CC[C@@H]3F)C3CC3)cc2n1)C1CCC(F)(F)CC1 (relative stereo) [Example 337, N—((S)-(7-((R)-Cyclopropyl((1S*,2S*)-2-fluorocyclobutane-1-carboxamido)methyl)imidazo[1,2-b]pyridazin-2-yl)(4,4-difluorocyclohexyl)methyl)-4-methyl-1,2,5-oxadiazole-3-carboxamide]
IC50 [1]: > 20 µM | IC50 [2]: 3.5 µM

Cc1nonc1C(=O)N[C@H](c1cn2ncc([C@H](NC(=O)[C@@]34C[C@@H](F)[C@@H]3C4)C3CC3)cc2n1)C1CCC(F)(F)CC1 (relative stereo) [Example 340, N—((S)-(7-((R)-Cyclopropyl((1S*,3R*,4R*)-3-fluorobicyclo[2.1.0]pentane-1-carboxamido)methyl)imidazo[1,2-b]pyridazin-2-yl)(4,4-difluorocyclohexyl)methyl)-4-methyl-1,2,5-oxadiazole-3-carboxamide]
IC50 [1]: > 20 µM | IC50 [2]: 8.6 µM

Cc1nonc1C(=O)N[C@H](c1cn2ncc([C@H](NC(=O)[C@@]34C[C@@H]3[C@@H](F)C4)C3CC3)cc2n1)C1CCC(F)(F)CC1 (relative stereo) [Example 341, N—((S)-(7-((R)-Cyclopropyl((1R*,3S*,4S*)-3-fluorobicyclo[2.1.0]pentane-1-carboxamido)methyl)imidazo[1,2-b]pyridazin-2-yl)(4,4-difluorocyclohexyl)methyl)-4-methyl-1,2,5-oxadiazole-3-carboxamide]
IC50 [1]: > 20 µM | IC50 [2]: 4.8 µM

Cc1nonc1C(=O)N[C@H](c1cn2ncc([C@H](NC(=O)[C@H](F)[C@@H](C)C(F)(F)F)C3CC3)cc2n1)C1CCC(F)(F)CC1 (relative stereo) [Example 352, N—((S)-(7-((R)-Cyclopropyl((2R*,3R*)-2,4,4,4-tetrafluoro-3-methylbutanamido)methyl)imidazo[1,2-b]pyridazin-2-yl)(4,4-difluorocyclohexyl)methyl)-4-methyl-1,2,5-oxadiazole-3-carboxamide]
IC50 [1]: 0.19 µM | IC50 [2]: 0.12 µM

Cc1nonc1C(=O)N[C@H](c1cn2ncc([C@H](NC(=O)[C@H](F)[C@H](C)C(F)(F)F)C3CC3)cc2n1)C1CCC(F)(F)CC1 (relative stereo) [Example 353, N—((S)-(7-((R)-Cyclopropyl((2R*,3S*)-2,4,4,4-tetrafluoro-3-methylbutanamido)methyl)imidazo[1,2-b]pyridazin-2-yl)(4,4-difluorocyclohexyl)methyl)-4-methyl-1,2,5-oxadiazole-3-carboxamide]
IC50 [1]: 0.97 µM | IC50 [2]: 0.63 µM

Cc1nonc1C(=O)N[C@H](c1cn2ncc([C@H](NC(=O)[C@@H](F)[C@@H](C)C(F)(F)F)C3CC3)cc2n1)C1CCC(F)(F)CC1 (relative stereo) [Example 354, N—((S)-(7-((R)-Cyclopropyl((2S*,3R*)-2,4,4,4-tetrafluoro-3-methylbutanamido)methyl)imidazo[1,2-b]pyridazin-2-yl)(4,4-difluorocyclohexyl)methyl)-4-methyl-1,2,5-oxadiazole-3-carboxamide]
IC50 [1]: 2.7 µM | IC50 [2]: 0.73 µM

Cc1nonc1C(=O)N[C@H](c1cn2ncc([C@H](NC(=O)[C@@H]3CNC[C@H]3C(F)(F)F)C3CC3)cc2n1)C1CCC(F)(F)CC1 (relative stereo) [Example 356, N—((S)-(7-((R)-Cyclopropyl((trans-3S*,4S*)-4-(trifluoromethyl)pyrrolidine-3-carboxamido)methyl)imidazo[1,2-b]pyridazin-2-yl)(4,4-difluorocyclohexyl)methyl)-4-methyl-1,2,5-oxadiazole-3-carboxamide]
IC50 [1]: 7.8 µM | IC50 [2]: 0.52 µM

O=C(CCC(F)(F)F)N[C@@H](c1cnn2cc([C@@H](NC(=O)[C@@H]3C[C@@H]3C(F)F)C3CCC(F)(F)CC3)nc2c1)C1CC1 (relative stereo) [Example 358, (1R*,2S*)—N—((S)-(7-((R*)-Cyclopropyl(4,4,4-trifluorobutanamido)methyl)imidazo[1,2-b]pyridazin-2-yl)(4,4-difluorocyclohexyl)methyl)-2-(difluoromethyl)cyclopropane-1-carboxamide]
IC50 [1]: 2.1 µM | IC50 [2]: 0.45 µM

O=C(CCC(F)(F)F)N[C@@H](c1cnn2cc([C@@H](NC(=O)[C@H]3C[C@H]3C(F)F)C3CCC(F)(F)CC3)nc2c1)C1CC1 (relative stereo) [Example 359, (1S*,2R*)—N—((S)-(7-((R*)-Cyclopropyl(4,4,4-trifluorobutanamido)methyl)imidazo[1,2-b]pyridazin-2-yl)(4,4-difluorocyclohexyl)methyl)-2-(difluoromethyl)cyclopropane-1-carboxamide]
IC50 [1]: 10 µM | IC50 [2]: 1.1 µM

O=C(CCC(F)(F)F)N[C@@H](c1cnn2cc([C@@H](NC(=O)[C@@H]3C[C@H]3CF)C3CCC(F)(F)CC3)nc2c1)C1CC1 (relative stereo) [Example 362, (1R*,2R*)—N—((S)-(7-((R*)-Cyclopropyl(4,4,4-trifluorobutanamido)methyl)imidazo[1,2-b]pyridazin-2-yl)(4,4-difluorocyclohexyl)methyl)-2-(fluoromethyl)cyclopropane-1-carboxamide]
IC50 [1]: > 20 µM | IC50 [2]: 4.2 µM

O=C(CCC(F)(F)F)N[C@@H](c1cnn2cc([C@@H](NC(=O)[C@H]3C[C@@H]3CF)C3CCC(F)(F)CC3)nc2c1)C1CC1 (relative stereo) [Example 363, (1S*,2S*)—N—((S)-(7-((R*)-Cyclopropyl(4,4,4-trifluorobutanamido)methyl)imidazo[1,2-b]pyridazin-2-yl)(4,4-difluorocyclohexyl)methyl)-2-(fluoromethyl)cyclopropane-1-carboxamide]
IC50 [1]: 1.1 µM | IC50 [2]: 0.64 µM

O=C(CCC(F)(F)F)N[C@@H](c1cnn2cc([C@@H](NC(=O)[C@H]3C[C@H]3CF)C3CCC(F)(F)CC3)nc2c1)C1CC1 (relative stereo) [Example 364, (1S*,2R*)—N—((S)-(7-((R*)-Cyclopropyl(4,4,4-trifluorobutanamido)methyl)imidazo[1,2-b]pyridazin-2-yl)(4,4-difluorocyclohexyl)methyl)-2-(fluoromethyl)cyclopropane-1-carboxamide]
IC50 [1]: > 20 µM | IC50 [2]: 2.1 µM
